We go through 4 compounds from paper PMC7890489, “Study on pharmacological properties and cell absorption metabolism of novel daidzein napsylates” (Royal Society Open Science, 2021).

Details of data set [1]: method as in ref 23 = [23]; 23 Zhang ZT , Liu QG , Liu XH , Yang BL , Duan YF , Gao ZW , Yu KB 2002 Synthesis, crystal structure and biological activity of monomethylated daidzein sulfonates . Acta Chim. Sinica 60 , 1846 – 1853. The following applies: compared with DAI; cited from earlier work.
Data set [2] in a line: Solubility in water, methanol, cyclohexane and ethyl acetate by HPLC. The class given is physicochemical. The following applies: organic solvent or mixture, thermodynamic from solid, head: hexane (text: cyclohexane), 37 °C, shaken 48 h.
The test system of data set [3] is human aortic vascular smooth muscle cells (HAVSMCs). As to the kind of experiment: Drug absorption in human aortic vascular smooth muscle cells (HPLC of cell supernatant). Format: in vitro ADME. The following applies: for value (drug concentration in cell supernatant): dosing DD4 171, DD5 120 ug/mL. The protocol:
(§1) HAVSMCs were obtained from resuscitation in cryopreservation tubes. HAVSMCs at passages 3–10 were seeded at a density of 10^5 in 6-well plates, 2 ml per well. The cells were cultured at 37°C in a 5% carbon dioxide incubator for 24 h to adhere to the cell wall; cells were cultured in serum-free DMEM for 24 h. The cells were synchronized, the supernatant was carefully aspirated and different concentrations of drug solution were added to the DMEM culture medium containing 10% serum. Equal amounts of DMEM culture medium without drugs were added to the blank group. Each group was set up in triplicate and further cultured. The cultures were terminated at 0.5, 1, 6, 12, 24 or 48 h. Cell culture supernatants were collected and stored at −80°C for further analysis.
Cell supernatants were thawed at room temperature and vortexed for 1 min. To 50 µl of the cell supernatant, 50 µl of methanol was added and the mixtures were mixed uniformly by eddy current. Ethyl acetate (1 ml) was added to the mixture and vortexed for 3 min. Ethyl acetate was separated by cooled centrifugation at 3000 r min^−1 and dried with nitrogen, and the residue was dissolved in 500 µl of methanol before injection for analysis.
Mobile phase: methanol-phosphoric acid solution (0.4%) (1 : 1); flow rate: 0.5 ml min^−1; injection volume: 10 µl; wavelength: 230 nm or 254 nm; column temperature 25°C.
Cell supernatants were thawed and vortexed for 1 min. Drug-added supernatant (50 µl) was treated by the same method as the pre-treatment of cell samples described in §4.2.
The absorption and utilization rates of DD4 and DD5 were calculated by the formula (6.1), with the reduction of drug concentration in the cell culture medium taken as the absorption amount of drug by cells. The initial drug concentration was c0, and the concentration in the cell supernatant at other time points is denoted as c. […] With increasing time, the cell absorption rate of the drug was maintained at about 60%. The main reason for the differences in absorption of DD4 and DD5 might be the length of the substituent group (methyl, ethyl) on the 7-position:6.1 absorption rate=c0−c/c0×100%.

Data set [4] can be described thus: Solubility in water, methanol, cyclohexane and ethyl acetate by HPLC. Format: physicochemical. The procedure: (§2) Mobile phase: acetonitrile-methanol (1 : 1); flow rate: 1.0 ml min^−1; injection volume: 20 µl; wavelength: 230 nm or 254 nm; column temperature: 25°C.
Five millilitres of water, methanol, cyclohexane and ethyl acetate was added to test tubes, and then samples (DD4 or DD5) were added. These solutions were shaken at constant temperature (37 ± 0.1)°C for 48 h. The supernatant was taken to determine its solubility with HPLC [14]. Solutions of tested sample beyond the linear concentration range were diluted with methanol for determination.

Data set [5] can be described thus: Apparent lipid-water (n-octanol/water) partition coefficient by HPLC. Format: physicochemical. On the set-up: key: —: Cannot be detected. The procedure:
as §2
DD4 (5.1 mg) was dissolved in 50 ml of water-saturated n-octanol solution to prepare a solution with a concentration of 102 mg l^−1. Solution (2 ml) and water-saturated n-octanol solution (2 ml) were added to a plugged 10 ml tube. The prepared sample solution was placed in a shaker and shaken to equilibrium overnight in the dark at constant temperature (37 ± 0.1)°C. The lower aqueous phase was taken and analysed by HPLC after centrifugation at a speed of 3000 r min^−1 for 10 min. The drug concentration in the aqueous phase (ρw) was calculated via the standard curve according to the peak area. DD5 (4.5 mg) was dissolved in 50 ml of water-saturated n-octanol solution to prepare a solution with a concentration of 90 mg l^−1. Other methods were the same as those for DD4 [14].

The subject of data set [6] is vascular smooth muscle cells. As to the kind of experiment: Cytotoxicity by MTT assay. The class given is cell-based. The settings on record: 300 ug/mL. The text has this:
[…] 2) Please list the full name of “HAVSMCs”at the first time it appears.
We have listed the full name of “HAVSMCs” as its first appearance in the abstract of […]
[…] 3) Please number the carbon atoms of the compounds.
[…] 4) Line 19-36: The abstract can reflect all aspects of the work, but it is a bit long and too detailed. The authors should rephrase the abstract for a more concise […]
We have rewritten the section of abstract and tried to make it as concise as possible.
[…] 5) As far as I'm aware, daidzein as a biologically active natural product has been used for curing angiocardiopathy. But whether the synthesized daidzeinnapsylates have significant toxic side effects remain unknown. So, in vitro cytotoxicity […]
A549, HeLa cells) need be performed.
The cytotoxicity of DD4 and DD5 was determined by MTT assay in our lab before […]
the two compounds was less than 10% at the concentration of 300 ug/mL. It is considered that the compound is not toxic to vascular smooth muscle cells at this concentration. Therefore, the dosing concentrations of DD4 and DD5 were 171 and 120 ug/mL, respectively, to investigate the absorption and metabolism of drugs by […]
6)Please attach the 1H-NMR specturm of DD4 and DD5 in supporting information;
Background: Tetrazolium assays rely on reduction of a dye to a coloured formazan, in cell work by metabolically active cells.

Data set [7] relates to human aortic vascular smooth muscle cells (HAVSMCs). As to the kind of experiment: Cell metabolism in HAVSMCs by HPLC-MS. The class given is in vitro ADME. The protocol: as §1
Mobile phase: methanol-formic acid (1 : 1); flow rate: 0.5 ml min^−1; injection volume: 10 µl; wavelength: 254 nm; column temperature: 25°C.
A triple quadrupole tandem precision mass spectrometer (Agilent 6430) with an […] source and a negative ion mode was used for precise determination. The full mass spectrum data were obtained in the range of m/z 50–1000. The optimal mass spectrum parameters were as follows: the capillary voltage was 4.0 kV; the injection cone voltage was 35 V; the desolvation gas flow (N2) rate was 900 l h^−1; the injection cone gas flow (N2) rate was 50 l h^−1; the desolvation temperature was 350°C; the ion source temperature was 150°C; the collision gas in collision induced dissociation (CID) mode was helium with high purity; the inlet pressure was set at 40 psi; the CID collision energy of the standard was 5–35 eV and the cracking voltage was 135 V.
The cell supernatant was thawed and vortexed for 0.5 min. Cell supernatant (50 µl) and […] (50 µl) were added to a 2 ml centrifuge tube and vortexed for 3 min. Ammonium dihydrogen phosphate (100 µl, 0.4%) and 1 ml of ethyl acetate were added, and the sample was vortexed for 3 min. The mixture was centrifuged at 3000 r min^−1 for 10 min. The supernatant (95 µl) was aspirated and dried by N2 flow. […] (500 µl) was added and the sample was vortexed for 0.5 min. After filtration over a 0.45 µm organic membrane, HPLC-MS analysis was carried out.
Cells from the −80°C stock were thawed at room temperature, and 1 ml of thawed cell lysate was added into each well of a 6-well plate. From each group, 0.5 ml of cell lysate was taken; 50 µl of […], 100 µl of ammonium dihydrogen phosphate (0.4%) and 1 ml of ethyl acetate were added and samples were vortexed for 3 min. Lysate (95 µl) was aspirated and dried by N2 flow. […] (500 µl) was added and samples were vortexed for 0.5 min. After filtration over a 0.45 µm organic membrane, HPLC-MS analysis was carried out.

On the set-up of data set [8]: method as in ref 9 = [9]; 9 Chou F 2005 Pharmacokinetics of daidzein and its precursors . Shenyang, People's Republic of China : Shenyang Pharmaceutical University . The following applies: rats, intragastric administration of DAI solution; cited from earlier work.
Details of data set [9]: key: —: Cannot be detected. The settings on record: DAI ref 14; cited from earlier work.
For data set [10] the following is noted: at pH 7.4, 410 K, DAI ref 16, cited from earlier work.
For data set [11] the following is noted: cited from earlier work.
For data set [12] the following is noted: water with a pH of 7.8; cited from earlier work.

Converted amounts (≈) assume the structure as drawn. “And” between values parts separate entries of the source, which are not always exact repeats. Identical values can stand only once. Like-named read-outs stand apart in the source and are kept apart here.

With sodium daidzein sulphonate, in data set [1], the anti-hypoxic-ischaemic effect result was “obviously better than that of DAI”.

Compound `COc1ccc2c(=O)c(-c3ccc(OS(=O)(=O)c4ccc5ccccc5c4)cc3)coc2c1` [DD4] displayed a melting point of 144 to 156 °C. In addition, in data set [2], the solubility at 48 h was 509 ± 49 µg/mL (≈ 1110 µM). Besides, in [3], the “time of peak (maximum) absorption” value was determined as 1 h. In addition, the “value (drug concentration in cell supernatant)” value in data set [3] (0.5 h) came out at 96.97 ± 15.57 µg/mL. Moreover, the “value (drug concentration in cell supernatant)” value in data set [3] (1 h) was 20.62 µg/mL and 20.62 ± 0.71 µg/mL. The “value (drug concentration in cell supernatant)” value in data set [3] (6 h) is 110.70 ± 4.98 µg/mL. Also, the “value (drug concentration in cell supernatant)” value in data set [3] (12 h) worked out at 82.48 ± 3.00 µg/mL. The “value (drug concentration in cell supernatant)” value in data set [3] (24 h) is 71.01 ± 34.97 µg/mL. The “value (drug concentration in cell supernatant)” value in data set [3] (48 h) amounted to 111.28 ± 1.72 µg/mL. In addition, the “maximum cell absorption rate relative to DAI” value in data set [3] (compared with DAI) is 4.3 times and 4.3–4.5 times. Also, the “absorptivity (maximum absorption rate)” value in [3] (maximum (at 1 h)) came out at 87.97%. The solubility at 48 h in [4] (ethyl acetate, 37 °C, shaken 48 h, HPLC, read-out: solubility ethanoate (ethyl acetate)) is 36300 µg/mL (≈ 79200 µM). In addition, in data set [4] (organic solvent or mixture, thermodynamic from solid, methanol, 37 °C, shaken 48 h, HPLC, read-out: solubility methanol), the solubility at 48 h was found to be 824 ± 19.3 µg/mL (≈ 1800 µM). For the same compound, the solubility at 48 h in [4] (thermodynamic from solid, water, 37 °C, shaken 48 h, HPLC, read-out: solubility water) is less than 0.059 µg/mL. In addition, the “solubility in water” value in data set [4] (water, 37 °C) is “too poor to be detected”. Further, in data set [4] (water, Table 5, read-out: solubility in water), the solubility at 48 h is less than 0.059 µg/mL. Besides, the lgP result in [5] (37 °C, HPLC of aqueous phase) is “—^b”. In addition, the “apparent lipid-hydro partition coefficient found” value in [5] (HPLC) is “—^b”. Further, the cell inhibition rate result in data set [6] was “less than 10%”. In data set [7] (HAVSMC lysate, 24 h incubation, HPLC-MS negative ion mode), the “metabolite identified (chemical name)” value is given as “daidzein-4'-naphthalene sulphonate”. Further, the “metabolites found in cell lysate” value in data set [7] (HAVSMCs incubated 24 h, HPLC-MS, also found in supernatant) is reported as “Four metabolites were found”. For the same compound, the “redox products in HAVSMCs” value in data set [7] (preliminary analysis of metabolic components) is “no redox products”.

For the compound `O=c1c(-c2ccc(O)cc2)coc2cc(O)ccc12` [DAI, 4′, 7-dihydroxyisoflavone], the “absolute bioavailability calculated on the basis of free DAI” value in data set [8] is 12.8%. Also, the lgP result in data set [9] is on record as “—^b”. Also, in data set [10], the “dissociation constant (percentage of drug prototypes) calculated value” is listed as 10.41%, the “molecular polar surface area/two-dimensional calculated value” is 66.76 Å^2, the “molecular surface area/three-dimensional calculated value” is listed as 315.07 Å^2 and the polarizability calculated value was 26.21. Further, in data set [10], the refractivity calculated value was 69.70. Further, in data set [10] (first figure of site/count), the H-bond accepter site is 5. For the same compound, the H-bond accepter count in data set [10] (second figure of site/count) is 4. Besides, the “solubility in ethyl acetate” value in data set [11] (Table 5, DAI ref 16) is 0.13 ± 0.11 µg/mL (≈ 0.511 µM). Moreover, the “solubility in cyclohexane” value in [11] (cyclohexane, DAI ref 14) is recorded as “could not be determined”. Moreover, the “solubility in water” value in [11] (water, DAI ref 14) is “too poor to be detected”.

Turning to `O=C(O)COc1ccc(-c2coc3cc(OCCO)ccc3c2=O)cc1` [4-oxoacetic acid-7-hydroxyethoxy-daidzein], in data set [12], the solubility in water was 54.28 µg/mL (≈ 152 µM).

Broadly, the melting point is the temperature, or range, at which the solid turns liquid. Usually solubility stands for the concentration that dissolves in the medium under given conditions.
